US20100022483A1, “Substituted Tetracycline Compounds” (Paratek Pharmaceuticals, Inc., priority 2008, published 2010)
≈ marks a conversion by molar mass, not a printed value. Where two headings read alike, the source gives them in different places.

What was measured:
gram negative bacteria = assay: In vitro anti-bacterial activity assay (broth dilution MIC), gram negative bacteria; format: cell-based, E. coli
How it was run: (§1)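 Broth dilution MIC following CLSI M7-A2: compounds serially diluted, log-phase test strains added to final ~5×10^5 CFU/ml, incubated ~18 hours at 35° C in ambient air. Plates read on microplate reader or visually; MIC is lowest concentration inhibiting growth.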

gram positive bacteria = assay: In vitro anti-bacterial activity assay (broth dilution MIC), gram positive bacteria; format: cell-based, S. aureus; settings: for MIC: 18 h
How it was run: as §1

CHO-K1 cells = assay: in vitro; format: cell-based; settings: Chinese hamster, 24 h
3T3 fibroblast cells = assay: In vitro phototoxicity assay (neutral red; UV light-treated vs dark control plates); format: cell-based; settings: for Photo Toxicity UV Tox50: UV light 50 minutes; for Photo Toxicity Dark Tox50: dark control plate
How it was run: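 Neutral red viability readout (A535 after EtOH/acetic acid extraction) compares paired plates: one exposed 50 min to UV at 1.6–1.8 mW/cm^2, one held in darkness, both dosed with compound in HBSS and recovered overnight. 3T3 fibroblast cells used; phototoxicity taken as the difference.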

[1] = Mammalian cytotoxicity assay (resazurin), COS-1 cells; format: cell-based; settings: African green monkey, read-out: Cytotox. COS-1
How it was run: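 Resazurin read-out (0.042 mg/ml, 2 h at 37° C. then 30 min dark, room temperature; fluorescence 535/590 nm) follows 24-hour compound exposure of overnight-seeded cells, serially diluted. IC50 is the concentration giving 50% growth inhibition.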

in vitro = format: cell-based; settings: Chinese hamster, Cytotox. CHO-K1
[2] = Escherichia coli, 18 h, E. coli D1 209, read-out: Median MIC's G− E. coli D1 209
[3] = Escherichia coli, 18 h, E. coli MG 1655, read-out: Median MIC's G− E. coli MG 1655
[4] = Escherichia coli, ATCC25922, 18 h, E. coli ATCC 25922, read-out: Median MIC's G− E. coli ATCC 25922
[5] = Pseudomonas aeruginosa, 18 h, P. aeruginosa K201 PAO6609, read-out: Median MIC's G− P. aeruginosa K201 PAO6609
[6] = Staphylococcus aureus, S. aureus MRSA5, read-out: Median MIC's G+ S. aureus MRSA5
[7] = Staphylococcus aureus, S. aureus RN450, read-out: Median MIC's G+ S. aureus RN450
[8] = Streptococcus pneumoniae, S. pneumoniae 157E-Strep, read-out: Median MIC's G+ S. pneumoniae 157E-Strep

Structure (SMILES)	Median MIC's G− E. coli ATCC 25922 (gram negative bacteria; E. coli ATCC 25922)	Median MIC's G− E. coli D1 209 (gram negative bacteria; E. coli D1 209)	Median MIC's G− E. coli MG 1655 (gram negative bacteria; E. coli MG 1655)	Median MIC's G− P. aeruginosa K201 PAO6609 (gram negative bacteria; P. aeruginosa K201 PAO6609)	Median MIC's G+ S. aureus MRSA5 (gram positive bacteria; S. aureus MRSA5)	Median MIC's G+ S. aureus RN450 (gram positive bacteria; S. aureus RN450)	Median MIC's G+ S. pneumoniae 157E-Strep (gram positive bacteria; S. pneumoniae 157E-Strep)	IC50 (CHO-K1 cells)	Photo Toxicity UV Tox50 (3T3 fibroblast cells)	Photo Toxicity Dark Tox50 (3T3 fibroblast cells)	MIC (gram negative bacteria; [2])	MIC (gram negative bacteria; [3])	MIC (gram negative bacteria; [4])	MIC (gram negative bacteria; [5])	MIC (gram positive bacteria; [6])	MIC (gram positive bacteria; [7])	MIC (gram positive bacteria; [8])	IC50 at 24 h [1]	IC50 at 24 h (in vitro)
CN(C)CCCNC(=O)c1cccc(-c2ccc(O)c3c2C[C@H]2C[C@H]4[C@H](N(C)C)C(O)=C(C(N)=O)C(=O)[C@@]4(O)C(O)=C2C3=O)c1 [Q]	64 µg/mL	64 µg/mL	64 µg/mL	64 µg/mL	64 µg/mL	2 µg/mL	1 µg/mL	> 137 µM	>137.36 µM	>137.36 µM									
CN(C)CCCNC(=O)c1cccc(-c2ccc(O)c3c2C[C@H]2C[C@H]4[C@H](N(C)C)C(O)=C(C(N)=O)C(=O)[C@@]4(O)C(O)=C2C3=O)c1 [J]								> 40.3 µM	>130.13 µM	>130.13 µM	64 µg/mL (≈ 103 µM)	32 µg/mL (≈ 51.7 µM)	32 µg/mL (≈ 51.7 µM)	64 µg/mL (≈ 103 µM)	64 µg/mL (≈ 103 µM)	1 µg/mL (≈ 1.62 µM)	1 µg/mL (≈ 1.62 µM)		
CN(C)[C@@H]1C(O)=C(C(N)=O)C(=O)[C@@]2(O)C(O)=C3C(=O)c4c(O)ccc(-c5cccc(C(=O)NCCN)c5)c4C[C@H]3C[C@@H]12 [N]									95.14 µM	>150.87 µM	64 µg/mL (≈ 111 µM)	64 µg/mL (≈ 111 µM)	64 µg/mL (≈ 111 µM)	64 µg/mL (≈ 111 µM)	64 µg/mL (≈ 111 µM)	2 µg/mL (≈ 3.47 µM)	16 µg/mL (≈ 27.7 µM)	> 46.8 µM	> 46.8 µM
COCCNCc1ccoc1-c1ccc(O)c2c1C[C@H]1C[C@H]3[C@H](N(C)C)C(O)=C(C(N)=O)C(=O)[C@@]3(O)C(O)=C1C2=O [BQ]									>140.51 µM	>140.51 µM	64 µg/mL (≈ 113 µM)	1 µg/mL (≈ 1.76 µM)	1 µg/mL (≈ 1.76 µM)	64 µg/mL (≈ 113 µM)	4 µg/mL (≈ 7.05 µM)	0.06 µg/mL (≈ 0.106 µM)	0.06 µg/mL (≈ 0.106 µM)	> 141 µM	> 141 µM
CN(C)[C@@H]1C(O)=C(C(N)=O)C(=O)[C@@]2(O)C(O)=C3C(=O)c4c(O)ccc(-c5cccc(C(=O)NCc6ccco6)c5)c4C[C@H]3C[C@@H]12 [Y]									>146.13 µM	>146.13 µM	64 µg/mL (≈ 104 µM)	64 µg/mL (≈ 104 µM)	64 µg/mL (≈ 104 µM)	64 µg/mL (≈ 104 µM)	1 µg/mL (≈ 1.63 µM)	0.06 µg/mL (≈ 0.0978 µM)	0.06 µg/mL (≈ 0.0978 µM)	> 14.6 µM	> 14.6 µM
CN1CCN(C(=O)c2cccc(-c3ccc(O)c4c3C[C@H]3C[C@H]5[C@H](N(C)C)C(O)=C(C(N)=O)C(=O)[C@@]5(O)C(O)=C3C4=O)c2)CC1 [C]									>137.76 µM	>137.76 µM	64 µg/mL (≈ 104 µM)	32 µg/mL (≈ 51.9 µM)	8 µg/mL (≈ 13 µM)	64 µg/mL (≈ 104 µM)	64 µg/mL (≈ 104 µM)	0.25 µg/mL (≈ 0.405 µM)	0.06 µg/mL (≈ 0.0973 µM)	> 138 µM	> 138 µM
COC(=O)C1CCN(Cc2ccc(O)c3c2C[C@H]2C[C@H]4[C@H](N(C)C)C(O)=C(C(N)=O)C(=O)[C@@]4(O)C(O)=C2C3=O)CC1 [AK]									>140.07 µM	>140.07 µM	4 µg/mL (≈ 7.02 µM)	0.5 µg/mL (≈ 0.878 µM)	0.25 µg/mL (≈ 0.439 µM)	64 µg/mL (≈ 112 µM)	2 µg/mL (≈ 3.51 µM)	0.06 µg/mL (≈ 0.105 µM)	0.06 µg/mL (≈ 0.105 µM)	> 140 µM	> 140 µM
CN(C)CCCc1cccc(-c2ccc(O)c3c2C[C@H]2C[C@H]4[C@H](N(C)C)C(O)=C(C(N)=O)C(=O)[C@@]4(O)C(O)=C2C3=O)c1 [DJ]									>200 µM	>200 µM	2 µg/mL (≈ 3.47 µM)	8 µg/mL (≈ 13.9 µM)	2 µg/mL (≈ 3.47 µM)	64 µg/mL (≈ 111 µM)	4 µg/mL (≈ 6.95 µM)	0.0625 µg/mL (≈ 0.109 µM)	0.06 µg/mL (≈ 0.104 µM)	141 µM	119 µM
